# Values of other authors as cited in patent US11351146B2, “Topical compositions for the treatment of cutaneous leishmaniasis” (AC BIOSCIENCE SA, priority 2017, dated 2022).
# How the values were obtained:
# [1] = test system: L. mexicana, L. infantum and L. major promastigotes
# intracellular amastigote = details: versus glucantime
smiles,measurement,setting,value
"CCOC(=O)c1cccc(NC(=O)CCl)c1 [MF 29, 3-(2-chloroacetamido) ethyl benzoate]",effect on promastigotes strains,"[1]; L. mexicana, L. infantum and L. major promastigotes",high effect
same,fold more active than glucantime,"[1]; promastigote, versus glucantime",400 fold
same,fold more active than glucantime,intracellular amastigote,400 fold
